Measurements published in patent publication US8420631B2, “6-substituted-2,3,4,5-tetrahydro-1H-benzo[d]azepines as 5-HT2C receptor agonists” (Eli Lilly and Company, priority 2005, dated 2013).

Columns and labels:
Wistar rats [1] = settings: general statement on standards; cited from earlier work
male NIH Swiss mice [2] = assay: Marble burying assay; format: in vivo, mouse; settings: with rotorod performance
Source text: Marble burying in mice has been used to model anxiety disorders including obsessive-compulsive disorders (OCD) due to ethological study of the behavior (e.g. Gyertyan I. “Analysis of the marble burying response: Marbles serve to measure digging rather than evoke burying”, Behavioural Pharmacology 6: 24-31, (1995)) and due to the pharmacological effects of clinical standards (c.f., Njung'E K. Handley S L. “Evaluation of marble-burying behavior as a model of anxiety”, Pharmacology, Biochemistry & Behavior. 38: 63-67, (1991)); Borsini F., Podhorna J., and Marazziti, D. “Do animal models of anxiety predict anxiolytic effects of antidepressants?”, Psychopharmacology 163: 121-141, (2002)).
House experimentally-naïve male, NIH Swiss mice (Harlan Sprague-Dawley, Indianapolis, Ind.) weighing between 28-35 g in groups of 12 for at least three days prior to testing in a vivarium with 12 h light and dark cycles. Conduct experiments during the light cycle in a dimly lit experimental testing room. Dose mice with vehicle or test compound and, after a specified pretreatment interval (generally 30 min.), place each mouse individually on a rotorod (Ugo Basile 7650) operating at a speed of 6 revolutions/min. and observe for falling. […]
Clinically effective standard compounds suppress marble burying at doses that are devoid of motor-impairing effects as measured on the rotorod. […]

male NIH Swiss mice [3] = assay: Nestlet shredding; format: in vivo, mouse; settings: with rotorod / motor effects
Source text: Mice naturally will construct nests of material available in their living environment. Since this behavior is obsessive in nature, it has been used to model OCD (Xia Li, Denise Morrow and Jeffrey M. Witkin, “Decreases in nestlet shredding of mice by serotonin uptake inhibitors: comparison with marble burying”, Psychopharmacology, submitted Jul. 14, 2003). House experimentally-naïve male, NIH Swiss mice (Harlan Sprague-Dawley, Indianapolis, Ind.) weighing between 28-35 g in groups of 12 for at least three days prior to testing in a vivarium with a 12 h light/dark cycle. Conduct experiments during the light cycle in an experimental room with normal overhead fluorescent lighting. Dose mice with vehicle or test compound and after a specified pretreatment interval (generally 30 min.), place the mice individually in a 17×28×12 cm high plastic tub with about 5 mm sawdust shavings on the floor along with a pre-weighed multi-ply gauze pad (51 mm square). After 30 min., weigh the remainder of the gauze pad not removed by the mouse. Determine the weight of the gauze used for nestlet construction by subtraction. Compare the results for test compound treated mice to the results for vehicle control treated mice with Dunnett's test.
Clinically effective OCD treatment standard compounds suppress nestlet shredding at doses that are devoid of motor-impairing effects as measured by the rotorod test. […]

Wistar rats [4] = assay: Schedule-induced polydipsia; settings: rat, in vivo
Source text: Food-deprived rats exposed to intermittent presentations of food will drink amounts of water that are far in excess of their normal daily intake and in excess of their intake when given all of their food at one time (Falk J L. “Production of polydipsia in normal rats by an intermittent food schedule”, Science 133: 195-196, (1961)). This excessive behavior is persistent and has been used to model OCD.
Maintain Wistar rats on a food restricted diet (to maintain 85% free feeding weight), but with free access to water. Train the rats in a behavioral testing chamber to press a lever to receive a food pellet under a fixed interval schedule, such that the rats are rewarded with a 45 mg food pellet the first time they press a lever after a 120 second interval has elapsed. The fixed interval is then reset to 120 seconds and the process repeated. Thus, during a 90 min. test session, the rats can earn a maximum of 45 pellets. The behavioral chamber is also equipped with a water bottle that is weighed before and after the session to determine the amount of water consumed.
Administer test compounds on Tuesdays and Fridays. […] Compare the rates of lever pressing and water consumption for each animal's performance during sessions after test compound treatment with that animal's performance during control sessions, expressed as a percent of the control rate. […]

male NIH Swiss mice [5] = settings: background statement; cited from earlier work

CN(C)CCCN1c2ccccc2CCc2ccc(Cl)cc21 [chlomipramine]
schedule-induced polydipsia, clinically effective OCD standard compounds (Wistar rats [1]): suppress schedule-induced polydipsia without producing notable changes in motor patterns, food intake, or behavior the following day

CN(C)CCCN1c2ccccc2Sc2ccc(Cl)cc21 [chlorpromazine]
marble burying behavior (male NIH Swiss mice [2]): decrease marble burying only at doses that also disrupt rotorod performance

C[C@H](N)Cc1ccccc1 [d-amphetamine]
nestlet shredding (male NIH Swiss mice [3]): decreases nestlet shredding only at doses that produce motoric side effects
schedule-induced polydipsia (excessive drinking) (Wistar rats [4]): decreases excessive drinking only at behaviorally stimulating doses
suppression of excessive drinking with co-administration of the 5-HT2C antagonist (Wistar rats [4]): not prevented

CNCCC(Oc1ccc(C(F)(F)F)cc1)c1ccccc1 (stereo not shown) [fluoxetine]
marble burying (literature) (male NIH Swiss mice [5]): decrease burying
schedule-induced polydipsia, clinically effective OCD standard compounds (Wistar rats [1]): suppress schedule-induced polydipsia without producing notable changes in motor patterns, food intake, or behavior the following day
